Results taken from paper PMC7345095, “New Synthetic Nitro-Pyrrolomycins as Promising Antibacterial and Anticancer Agents” (Antibiotics, 2020).
≈ marks a conversion by molar mass, not a printed value. Like-named read-outs stand apart in the source and are kept apart here.

Key:
[1] = test system: HCT116 and MCF 7 cancer cell lines; experiment: MTT viability assay, statements over both cancer cell lines; format: cell-based; conditions: for IC50: MTT, 48 h challenge, group statement, read-out: IC50, regardless of the cancer cell line (HCT116, MCF 7); for C-SI, mean value among the two cancer cell lines: mean of HCT116 and MCF 7 C-SI
Description: (§1) The HCT116 colon cancer cell line (ATCC® CCL-247™), the MCF 7 breast cancer cell line (ATCC® HTB-22™) and the hTERT RPE-1 -immortalized retinal pigment epithelial cell line (ATCC® CRL-4000™) used in this study were cultured in DMEM medium (Gibco, Paisley, UK), supplemented with 1% glutamine, 10% heat-inactivated fetal bovine serum and 100U/mL penicillin and 100 μg/mL streptomycin, as already described, and maintained at 37 °C and 5% CO2.
(§2) Cells were plated at 5 × 10^3 cells/well in 96-well plates and incubated for 24 h prior to treatment for further 48 h of different concentrations of PMs. After incubation, a sample of 20 μL of Thiazolyl Blue Tetrazolium Bromide (5 mg mL^−1) in PBS was added to each well and cultured for 2h at 37 °C in CO2 incubator. After removing the medium containing MTT and three washes with PBS, 100 μL of warm DMSO was added to each well to dissolve formazan. Samples were shaken for 10 min, at room temperature in the dark, and the absorbance was recorded at 570 nm using a microplate reader (Spark® 20M Tecan Trading AG, Switzerland). Percentage of cell viability with respect to untreated control cells (vehicle control) was calculated after subtraction of the blank. The IC50 values, that is the concentration necessary to inhibit the 50% of cell growth, was calculated using a dose-response model, obtained from sigmoidal fitting of response curves of percent inhibition versus logarithmic concentration of PMs, using Graph Pad Prism software. Each result represents the mean value of three different experiments performed in triplicate.

[2] = test system: hTERT RPE-1 immortalized retinal pigment epithelial cell line; experiment: MTT viability assay (cytotoxicity on normal cells); format: cell-based; conditions: hTERT-RPE1; MTT, 48 h of treatment, normal epithelial cells; read-out: IC50 hTERT-RPE-1
Description: as §1, §2

[3] = test system: Pseudomonas aeruginosa ATCC 10145; experiment: Kill curve assay (MBC), planktonic cells; format: cell-based; conditions: for MBC: Pseudomonas aeruginosa, ATCC10145, minimal bactericidal concentration, planktonic cells, 24 h challenge, LB medium, read-out: MBC P. aeruginosa; for log reduction in the number of viable CFUs, P. aeruginosa: highest concentration tested 100 μM, 24 h; for B-SI (Bacterial Selectivity Index), P. aeruginosa: ratio of IC50 of normal hTERT-RPE-1 to MBC of P. aeruginosa, first value of the cell
Description: (§3) Kill curve assays were performed to test the antimicrobial efficacy of pyrrolomycins (i.e., 1, 2, 5a, 5b, 5c, 5d), as well as that of the natural PM-C against the indicator pathogen Staphylococcus aureus ATCC 25923 and Pseudomonas aeruginosa ATCC 10145 strains. Briefly, a single colony of either S. aureus or P. aeruginosa strains was picked up and pre-cultivated (ca. 16 h) at 37 °C with shacking (160 rpm) in Luria Bertani medium (hereinafter named as LB and composed of (g L^−1): sodium chloride, 10; yeast extract, 5; tryptone, 10). The same medium was solidified by adding 15 g L^−1 of bacteriological agar when needed. Bacterial cells were then inoculated (1% v/v) in LB medium amended with increasing concentrations—ranging from 0 to 100 μM as initial concentration—of each pyrrolomycin tested, challenging the cultures for 24 h and incubating them as reported above. The actual number of viable colony forming units per milliliter of culture (CFU mL^−1) of each bacterial strain, who survived the challenge exerted by pyrrolomycins, was evaluated through the spot plate count method and compared to unchallenged cultures, as reported elsewhere. The data are reported as average values (n = 3) of CFU mL^−1 in the logarithmic (Log10) scale with standard deviation (SD). Evaluation of the MIC of PM-5c, and -5d against S. aureus and of PM-5d against P. aeruginosa was performed by incubating 1% (v/v) of an overnight bacterial suspension in LB medium in presence of increasing concentrations of the PMs. As a control, MIC of PM-C was measured. At the time of the inoculum and after overnight challenge, the absorbance of the cultures at 600 nm, which is an indirect way to measure the bacterial cell growth, was registered using a Spark™ 10 M multimode microplate reader measuring. The experiment was carried out in triplicate, being the absorbance corrected by subtracting that of the culture medium amended with the corresponding PM tested.

[4] = test system: Staphylococcus aureus ATCC 25923; experiment: Kill curve assay (MBC), planktonic cells; format: cell-based; conditions: for MBC: minimal bactericidal concentration, planktonic cells, 24 h challenge, LB medium, read-out: MBC S. aureus; for B-SI (Bacterial Selectivity Index), S. aureus: ratio of IC50 of normal hTERT-RPE-1 to MBC of S. aureus, second value of the cell
Description: as §3

[5] = test system: HCT116 cells; experiment: Morphological assessment, phase contrast inverted microscope; format: cell-based; conditions: 0.1 µM (sub-inhibitory), 24 h
Description: HCT116 cells were seeded in 24 well culture plates with a cell density of 1 × 10^5 cells/well. After 24 h cells were incubated for 24 h with different concentration of the selected PMs, and observed under a phase contrast inverted microscope (Carl Zeiss) at 200× magnification, for morphological changes assessment.

[6] = test system: HCT116 cells; experiment: Acridine orange/ethidium bromide (AO/EB) staining; format: cell-based; conditions: treated at IC50 for 24 and 48 h
From the text: Cells were immediately observed under a fluorescent microscopy (Carl Zeiss) at 630 × magnification.

[7] = test system: MCF 7 breast cancer cell line; experiment: MTT viability assay; format: cell-based; conditions: for IC50: MTT, 48 h of treatment; for C-SI (Cancer Selectivity Index), MCF 7: ratio of IC50 of normal hTERT-RPE-1 to that of MCF 7, second value of the cell
Description: as §1, §2

[8] = test system: HCT116 colon cancer cell line; experiment: MTT viability assay; format: cell-based; conditions: for IC50: MTT, 48 h of treatment; for C-SI (Cancer Selectivity Index), HCT116: ratio of IC50 of normal hTERT-RPE-1 to that of HCT116, first value of the cell
Description: as §1, §2

[9] = test system: S. aureus; experiment: MIC by absorbance at 600 nm after overnight challenge; format: cell-based; conditions: Staphylococcus aureus, LB medium, absorbance 600 nm
Description: as §3

[10] = Staphylococcus aureus, ATCC25923

| SMILES | IC50 [1] [µM] | C-SI, mean value among the two cancer cell lines [1] | IC50 [2] [µM] | MBC [3] [µM] | log reduction in the number of viable CFUs, P. aeruginosa [3] [log] | B-SI (Bacterial Selectivity Index), P. aeruginosa [3] | MBC [4, 10] [µM] | B-SI (Bacterial Selectivity Index), S. aureus [4] | morphology of treated HCT116 cells [5] | AO/EB fluorescence of treated HCT116 cells (type of cell death) [6] | IC50 ([7]; Homo sapiens, MCF7, 48 h) [µM] | IC50 [7] [µM] | C-SI (Cancer Selectivity Index), MCF 7 [7] | IC50 ([8]; Homo sapiens, HCT-116, 48 h) [µM] | C-SI (Cancer Selectivity Index), HCT116 [8] | melting point [°C] | IC50 [8] [µM] | MBC [4] [µM] | also measured |
| --- | --- | --- | --- | --- | --- | --- | --- | --- | --- | --- | --- | --- | --- | --- | --- | --- | --- | --- | --- |
| O=C(c1cc(Br)cc(Br)c1O)c1[nH]c(Br)c(Br)c1Br [PM 1, 3,4,5,3′,5′-Pentabromo-2-(2′-hydroxybenzoyl)pyrrole, reference compound] | 0.8 to 2.25 | 46 | 57.7 ± 11.2 | > 100 | 2.2 | > 0.6 | 5 (≈ 2.91 µg/mL) | 11.5 | more fibroblastic and less clumped morphology | red fluorescence | 1.22 ± 0.69 | 1.2 ± 0.7 | 47.3 | 1.3 ± 0.3 | 44.2 |  |  |  |  |
| COc1c(Br)cc(Br)cc1C(=O)c1c(Br)c(Br)c(Br)n1C [PM 2, (3,5-Dibromo-2-methoxyphenyl)(3,4,5-tribromo-1-methyl-1H-pyrrol-2-yl)methanone] | > 7 | 11 | 149 ± 41 | > 100 |  | > 1.5 | 70 (≈ 42.7 µg/mL) | 2.1 |  |  | 17.2 ± 3.2 | 17.2 ± 3.2 | 8.6 | 11.1 ± 3.26 | 13.4 | 179 to 180 | 11.1 ± 3.3 |  |  |
| O=C(c1cc([N+](=O)[O-])c[nH]1)c1cc(Cl)cc(Cl)c1O [PM 5a, (3,5-Dichloro-2-hydroxyphenyl)(4-nitro-1H-pyrrol-2-yl)methanone] | 0.8 to 2.25 | 32 | 65.8 ± 10.5 | > 100 |  | > 0.7 | 60 (≈ 18.1 µg/mL) | 1.1 | more fibroblastic and less clumped morphology | orange fluorescence | 2.25 ± 0.35 | 2.2 ± 0.3 | 29.2 | 1.9 ± 0.42 | 34.6 |  |  | 60 (≈ 18.1 µg/mL) |  |
| O=C(c1cc(Cl)c([N+](=O)[O-])[nH]1)c1cc(Cl)cc(Cl)c1O [PM 5b, (4-Chloro-5-nitro-1H-pyrrol-2-yl)(3,5-dichloro-2-hydroxyphenyl)methanone] | > 7 | 2.5 | 55.4 ± 13.2 | > 100 | 2.7 | > 0.6 | 20 (≈ 6.71 µg/mL) | 2.8 |  |  | 28.8 ± 4.21 | 28.8 ± 4.2 | 1.9 | 18.7 ± 3.81 | 3 | 180 to 182 | 18.7 ± 3.8 | 20 (≈ 6.71 µg/mL) |  |
| O=C(c1cc(Br)c([N+](=O)[O-])[nH]1)c1cc(Cl)cc(Cl)c1O [PM 5c, (4-Bromo-5-nitro-1H-pyrrol-2-yl)(3,5-dichloro-2-hydroxyphenyl)methanone] | > 7 | 8 | 29.7 ± 5.7 | > 100 | 2.2 | > 0.3 | 1 (≈ 0.38 µg/mL) | 29.7 |  |  | 12 ± 2.85 | 12 ± 2.8 |  | 7.64 ± 1.88 |  | 175 to 177 | 7.6 ± 1.9 | 1 (≈ 0.38 µg/mL) | fold more active than the synthetic PM-1 (S. aureus) ([4]; fold versus PM-1): 5; times more active than PM-C (S. aureus MBC) ([4]; fold versus PM-C): 90; times less toxic than PM-C (bacterial SI) ([4]; from bacterial selectivity index, S. aureus): 30; MIC [9]: 0.5 µM (≈ 0.19 µg/mL) |
